The structures appear in SMILES notation. Counter-ions that a name gives are not always drawn.

Data on six molecules can be found in US20150080380A1, “Therapeutic Uses” (GLAXOSMITHKLINE INTELLECTUAL PROPERTY DEVELOPMENT LIMITED, priority 2012, published 2015).

One assay has as its system OPC differentiation. Nature of the assay: Oligodendrocyte precursor cell (OPC) differentiation assay (MBP immunocytochemistry). It counts as cell-based, rat. The conditions noted are these: Rattus norvegicus, Oligodendrocyte precursor cell, 96 h; 0.3 nM-10 uM, 4 days, FIG. 1; read-out: EC50, promotion of OPC differentiation (MBP+ population). As to the method: The effects of small-molecule inverse agonists and neutral antagonists of histamine receptor 3 (H3R) on OPC differentiation were determined using the following assay.
The enriched OPC were obtained from dissecting 2-d-old rat pups forebrain. The pups were anesthetized and decapitated. Then the skull was cut with microdissecting scissors and the cortex was taken out with Dumont forceps. The meninges were removed with fine tips. After repeated trituration of the cortex through cell strainer, cells were re-suspended with the culture media consisted of DMEM supplemented with 20% Fetal bovine serum (Invitrogen, Carlsbad, Calif.), glutamine (4 mM, (Invitrogen), and plated onto poly-D-lysine (PDL, […] for 1 h, Sigma, St. Louis, Mo.)-coated T75 flasks. The resulting cultures were fed with fresh culture media twice per week and almost all the neurons will die due to the high concentration of serum in one week. Then the mixed glial cells were subjected to a series shake-off procedure to obtain pure OPCs two weeks later. Specifically, the mixed glial cells were shaken initially for 1 hour at 100 rpm to remove microglia and shaken for 20-22 hours at 37° C. at 200 rpm to enrich OPCs. OPCs were collected by centrifugation at 1200 rpm for 5 min, re-suspended in basal chemically defined medium (BDM). BDM consisted of DMEM supplemented with N2 medium (100×, Invitrogen), glutamine (4 mM, Invitrogen), BSA (0.1 mg/ml, Sigma), hydrocortisone (20 nM, Sigma), selenium (30 nM, Sigma) and biotin (10 nM, Sigma). OPCs were plated on poly-ornithine (PO, 50 μg/ml for 1 hr, Sigma)-coated culture dishes and maintained in BDM supplemented with bFGF (10 ng/ml, Invitrogen) and PDGF (10 ng/ml, PeproTech, Rocky Hill, N.J.) before experimental manipulation. OPCs were 95% pure judged by A2B5+ staining.
To initiate OPC differentiation, OPCs were firstly treated with 0.05% Trypsin/EDTA, and seeded into PO-coated 384-mini well plate at a density of 2,000 to 5,000 cells/well. Each test compound was dissolved in DMSO at the concentration of 10 mM for the assay. Compounds at different concentrations (full dose curve, 0.3 nM-10 uM) were added into the OPC culture in duplicates with Echo machine (Thermo, Waltham, Mass.). OPCs were cultured in BDM supplemented with N-acetyl-L-cystenine (30 μM, Sigma) to differentiate into mature oligodendrocytes for 4 days. BDM comprise DMEM (Invitrogen), N2 (100×, Invitrogen), L-Glu (50×, Invitrogen), Sodium Pyruvate (100×, Invitrogen), BSA (0.1%, Sigma), Biotin (10 nM, Sigma), hydrocortisone (10 nM, Sigma). The resulting cultures were fixed with 4% polyformaldehyde (Sigma) and samples were blocked with the blocking buffer (Donkey Serum 3%, Sigma; Triton X-100 0.04%, Sigma). Then fixed cells were incubated in primary antibodies (anti-myelin basic protein, MBP antibody, 600× dilution in blocking buffer) overnight at 4° C., washed thoroughly with PBS and then incubated with Alexa 488-labeled secondary antibody (Molecular Probes, Invitrogen) for 2 h at R.T; then washed thoroughly with PBS and stained with Dapi (1 ug/ml, Sigma),
The full-plate immunocytochemistry staining was read by an automatic image-based analysis system-Cellomics (Thermo) and the raw data for each well was acquired as percentage of MBP+ population as follows: Pictures of eight fields per well were captured and analyzed quantitatively; the well data is the average of 8 fields. The intensity of anti-MBP staining in the cytosol was used as the criteria of positive objects. The threshold of positive objects was set based on the average intensity of the positive control well, for which triiodothyronine (15 nM) was used. Then the data was analyzed and presented as fold change of the number of the vehicle control well. Graphs were generated by softwares: Microsoft Excel and IDBS XL fits. The curve fitting was performed with software XL fits to derive EC50 of the positive compounds.
All data except FIG. 1 are given as mean±standard error of the mean (SEM). […]
By EC50 is commonly meant the concentration at which the effect is half-maximal. Consider `CC(C)N1CCC(OC2CCN(c3ccc(C#N)cc3)CC2)CC1` [Example compound 3, 4-(4-((1-isopropylpiperidin-4-yl)oxy)piperidin-1-yl)benzonitrile hydrochloride], for which the EC50 amounted to 31 nM.

As to `Clc1ccc(CCCOCCCN2CCCCC2)cc1` [Example compound 6, 1-(3-(3-(4-chlorophenyl)propoxy)propyl)piperidine, reference compound], the half-maximal effective concentration (EC50) was determined as 14 nM. As for `C[C@@H]1CCCN1CCCOc1ccc(-c2ccc(=O)[nH]n2)cc1` [Example compound 7, (R)-6-(4-(3-(2-methylpyrrolidin-1-yl)propoxy)phenyl)pyridazin-3(2H)-one, reference compound], the concentration for a half-maximal effect (EC50) stood at 250 nM. The same measure, in the same setting: with `N=C(NCc1ccc(Cl)cc1)SCCCc1c[nH]cn1` [Example compound 8, 3-(1H-imidazol-4-yl)propyl 4-chlorobenzylcarbamimidothioate dihydrobromide, reference compound] the figure was 48 nM.

The assay is the same for the next values; noted with them: all concentrations (0.3 nM-10 uM), FIG. 1b.
On to `c1ccc(COCCCc2cnc[nH]2)cc1` [Example compound 4, 4-[3-(Phenylmethoxy)propyl]-1H-imidazole oxalate, reference compound], for which the “effect on OPC differentiation” value is “didn't show any effect”.

Regarding `c1nc(CCCC2CCNCC2)c[nH]1` [Example compound 5, 4-[3-(1H-Imidazol-4-yl)propyl]piperidine dihydrobromide, reference compound], the “effect on OPC differentiation” value is recorded as “didn't show any effect”.
